Key:
Format in all cases: cell-based
Cav1.3 = biological target: T1, Cav1.3 (Homo sapiens, UniProt Q01668); experiment: whole-cell patch-clamp concentration-response, […] Ca2+, HP -89 mV, […] Hz
T1 construct: gene CACNA1D; human Cav1.3S (C-terminal short splice variant, exon 8b) α1 stably expressed in tsA-201 cells; with auxiliary β3 (rat) and α2δ1 (rabbit) subunits

Cav2.3 = biological target: T2, Cav2.3 (Homo sapiens, UniProt Q15878); experiment: whole-cell patch-clamp, […], […] Ca2+, HP -89 mV, […] Hz; conditions: read-out: % remaining ICa / 10 μM
T2 construct: gene CACNA1E; Cav2.3e α1 transiently expressed in tsA-201 cells; with auxiliary β3 and α2δ1 subunits

Cav1.2 = biological target: T3, Cav1.2 (Homo sapiens, UniProt Q13936); experiment: whole-cell patch-clamp concentration-response, […] Ca2+, HP -89 mV, […] Hz
T3 construct: gene CACNA1C; human Cav1.2 α1 stably expressed in tsA-201 cells; with auxiliary β3 (rat) and α2δ1 (rabbit) subunits

T1 sequence (Q01668 whole entry, canonical isoform): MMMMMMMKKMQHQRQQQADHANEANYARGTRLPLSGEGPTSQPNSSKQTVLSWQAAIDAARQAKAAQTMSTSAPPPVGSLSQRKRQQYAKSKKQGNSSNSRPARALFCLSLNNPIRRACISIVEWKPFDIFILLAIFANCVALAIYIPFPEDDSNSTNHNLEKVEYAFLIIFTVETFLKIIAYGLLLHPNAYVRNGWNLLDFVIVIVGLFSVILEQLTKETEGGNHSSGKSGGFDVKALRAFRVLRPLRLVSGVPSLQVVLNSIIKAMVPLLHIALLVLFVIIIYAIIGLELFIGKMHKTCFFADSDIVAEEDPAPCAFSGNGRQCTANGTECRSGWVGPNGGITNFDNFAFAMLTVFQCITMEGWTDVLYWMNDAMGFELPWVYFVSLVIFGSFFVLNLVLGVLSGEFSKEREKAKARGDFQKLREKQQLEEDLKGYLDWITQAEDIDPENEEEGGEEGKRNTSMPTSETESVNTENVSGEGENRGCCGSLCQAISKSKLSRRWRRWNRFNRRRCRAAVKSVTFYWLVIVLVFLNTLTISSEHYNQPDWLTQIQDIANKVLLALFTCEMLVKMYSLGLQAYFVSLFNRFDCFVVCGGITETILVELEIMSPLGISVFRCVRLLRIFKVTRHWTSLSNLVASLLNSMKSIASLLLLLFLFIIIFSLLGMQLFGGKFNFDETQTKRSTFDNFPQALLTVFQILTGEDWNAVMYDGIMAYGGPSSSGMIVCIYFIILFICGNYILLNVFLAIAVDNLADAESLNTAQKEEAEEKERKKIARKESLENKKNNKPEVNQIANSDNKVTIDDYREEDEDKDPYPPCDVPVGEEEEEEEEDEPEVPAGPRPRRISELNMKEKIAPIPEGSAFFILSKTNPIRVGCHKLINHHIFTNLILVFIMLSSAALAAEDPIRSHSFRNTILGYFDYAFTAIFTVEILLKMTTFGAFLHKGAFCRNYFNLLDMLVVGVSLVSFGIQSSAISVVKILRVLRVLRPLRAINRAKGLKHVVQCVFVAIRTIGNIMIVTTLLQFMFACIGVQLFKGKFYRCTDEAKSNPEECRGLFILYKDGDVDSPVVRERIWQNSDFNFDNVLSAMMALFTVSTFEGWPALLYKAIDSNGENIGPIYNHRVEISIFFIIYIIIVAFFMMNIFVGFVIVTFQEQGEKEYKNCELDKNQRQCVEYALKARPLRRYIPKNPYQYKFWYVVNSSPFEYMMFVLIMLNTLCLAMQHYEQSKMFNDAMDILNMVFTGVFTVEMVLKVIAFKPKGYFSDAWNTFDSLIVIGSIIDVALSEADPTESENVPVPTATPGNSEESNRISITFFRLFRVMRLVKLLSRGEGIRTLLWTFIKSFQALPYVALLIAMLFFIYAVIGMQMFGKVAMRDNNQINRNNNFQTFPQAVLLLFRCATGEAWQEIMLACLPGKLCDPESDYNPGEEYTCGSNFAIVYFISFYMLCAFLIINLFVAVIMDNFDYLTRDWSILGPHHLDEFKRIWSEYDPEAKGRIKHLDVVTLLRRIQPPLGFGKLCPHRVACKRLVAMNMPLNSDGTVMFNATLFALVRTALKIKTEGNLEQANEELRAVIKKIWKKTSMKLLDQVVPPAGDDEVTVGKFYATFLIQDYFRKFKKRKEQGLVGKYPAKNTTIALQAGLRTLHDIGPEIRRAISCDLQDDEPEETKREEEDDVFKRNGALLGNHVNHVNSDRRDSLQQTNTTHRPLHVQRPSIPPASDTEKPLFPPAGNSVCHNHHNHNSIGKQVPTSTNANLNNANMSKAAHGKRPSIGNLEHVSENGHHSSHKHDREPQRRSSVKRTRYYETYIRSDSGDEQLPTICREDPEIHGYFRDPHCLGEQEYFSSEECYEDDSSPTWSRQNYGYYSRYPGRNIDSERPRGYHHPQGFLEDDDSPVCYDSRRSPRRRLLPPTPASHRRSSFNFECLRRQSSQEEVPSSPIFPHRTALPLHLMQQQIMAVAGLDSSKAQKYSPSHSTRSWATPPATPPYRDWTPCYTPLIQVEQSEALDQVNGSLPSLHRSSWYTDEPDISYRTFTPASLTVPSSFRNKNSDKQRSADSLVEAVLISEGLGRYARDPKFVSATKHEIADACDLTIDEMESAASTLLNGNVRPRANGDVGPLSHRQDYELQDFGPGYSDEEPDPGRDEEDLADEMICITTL
T1 sequence (P54287 whole entry partner, canonical isoform): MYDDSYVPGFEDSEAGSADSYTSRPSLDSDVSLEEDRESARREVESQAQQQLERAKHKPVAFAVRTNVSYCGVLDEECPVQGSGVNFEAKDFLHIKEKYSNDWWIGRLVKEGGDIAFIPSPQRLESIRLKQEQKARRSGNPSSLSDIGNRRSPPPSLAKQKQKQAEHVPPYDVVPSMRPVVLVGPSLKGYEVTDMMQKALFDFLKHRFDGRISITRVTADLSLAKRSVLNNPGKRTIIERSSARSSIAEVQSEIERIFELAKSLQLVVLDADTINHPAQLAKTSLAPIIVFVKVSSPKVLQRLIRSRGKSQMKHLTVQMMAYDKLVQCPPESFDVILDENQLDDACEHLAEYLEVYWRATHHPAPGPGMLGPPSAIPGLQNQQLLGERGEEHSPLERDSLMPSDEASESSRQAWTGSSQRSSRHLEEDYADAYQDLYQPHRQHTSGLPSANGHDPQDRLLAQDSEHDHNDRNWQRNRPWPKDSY
T1 sequence (P13806 27-960 partner): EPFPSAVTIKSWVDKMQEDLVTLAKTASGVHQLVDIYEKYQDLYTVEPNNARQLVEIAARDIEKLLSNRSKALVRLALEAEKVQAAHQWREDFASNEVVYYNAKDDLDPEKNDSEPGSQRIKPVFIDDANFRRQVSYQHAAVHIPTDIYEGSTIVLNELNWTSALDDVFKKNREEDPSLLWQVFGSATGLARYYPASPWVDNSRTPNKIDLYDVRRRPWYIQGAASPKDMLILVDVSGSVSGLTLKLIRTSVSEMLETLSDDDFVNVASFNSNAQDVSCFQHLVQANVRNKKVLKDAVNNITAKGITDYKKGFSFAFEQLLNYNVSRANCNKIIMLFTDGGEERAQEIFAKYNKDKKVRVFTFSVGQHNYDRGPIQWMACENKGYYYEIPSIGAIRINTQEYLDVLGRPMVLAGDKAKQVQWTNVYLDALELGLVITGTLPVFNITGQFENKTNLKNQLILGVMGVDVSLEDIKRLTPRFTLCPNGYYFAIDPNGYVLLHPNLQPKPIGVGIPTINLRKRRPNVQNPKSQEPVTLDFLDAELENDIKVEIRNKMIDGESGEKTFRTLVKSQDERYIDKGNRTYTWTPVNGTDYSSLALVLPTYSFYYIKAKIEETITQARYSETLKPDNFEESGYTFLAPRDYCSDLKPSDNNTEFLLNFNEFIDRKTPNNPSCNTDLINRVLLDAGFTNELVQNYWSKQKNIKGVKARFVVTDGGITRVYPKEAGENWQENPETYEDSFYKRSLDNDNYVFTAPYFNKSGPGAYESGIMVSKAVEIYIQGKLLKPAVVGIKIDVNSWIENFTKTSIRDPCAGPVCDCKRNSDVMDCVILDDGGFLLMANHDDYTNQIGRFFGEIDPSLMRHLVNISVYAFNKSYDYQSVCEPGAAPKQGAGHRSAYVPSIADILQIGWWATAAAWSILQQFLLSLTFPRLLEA
T1 sequence (P13806 961-1106 partner): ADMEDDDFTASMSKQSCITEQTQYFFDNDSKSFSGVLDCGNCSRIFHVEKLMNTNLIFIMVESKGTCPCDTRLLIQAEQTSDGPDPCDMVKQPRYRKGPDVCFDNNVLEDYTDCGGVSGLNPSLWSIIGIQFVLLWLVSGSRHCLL

Row | SMILES | IC50 (Cav1.3) | remaining activity at 10 µM (Cav2.3) | IC50 (Cav1.2)
1 | COC(=O)C1=C(C)NC(C)=C(C(=O)OC(C)C)C1c1cccc2nonc12 (stereo not shown) [isradipine] | 0.134 µM | – | –
2 | C=C[C@](C)(O)CC[C@@H]1[C@@]2(C)CCCC(C)(C)[C@@H]2CC[C@@]1(C)O [sclareol] | 16.3 µM | 36.7 ± 11.2% | 12.5 µM

From publication PMC12445503 (Channels, 2025)
